Measurements as given in ChEMBL document CHEMBL1156078, “Structure-activity relationship (SAR) studies of 3-(2-amino-ethyl)-5-(4-ethoxy-benzylidene)-thiazolidine-2,4-dione: development of potential substrate-specific ERK1/2 inhibitors” (Bioorg Med Chem Lett, 2009).
Values belong to the molecule of their own block, whether it stands above or below them. Calls of active or inactive are those of the source. The calls are words filed in the database; no cut-off is given here.

Columns and labels:
[1] = biological target: T1, Mitogen-activated protein kinase; ERK1/ERK2 (Homo sapiens) (UniProt P27361+P28482); assay: Inhibition of ERK1/2 phosphorylation in PMA-stimulated human U937 cells at 10 to 50 uM after 3 hrs by Western blotting; format: cell-based; conditions: U-937
T1 sequence (P27361 whole entry, looked up): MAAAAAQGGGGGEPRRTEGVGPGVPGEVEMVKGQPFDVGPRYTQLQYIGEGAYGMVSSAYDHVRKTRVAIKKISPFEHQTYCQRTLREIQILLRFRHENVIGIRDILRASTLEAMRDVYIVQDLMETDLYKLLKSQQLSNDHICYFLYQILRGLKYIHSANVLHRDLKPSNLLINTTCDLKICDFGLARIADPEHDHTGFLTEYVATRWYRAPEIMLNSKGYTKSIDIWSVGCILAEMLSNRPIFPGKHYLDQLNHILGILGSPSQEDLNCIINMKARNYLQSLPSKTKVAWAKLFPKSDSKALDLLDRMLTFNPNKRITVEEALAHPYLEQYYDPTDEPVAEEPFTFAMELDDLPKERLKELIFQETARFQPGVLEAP
T1 sequence (P28482 whole entry, looked up): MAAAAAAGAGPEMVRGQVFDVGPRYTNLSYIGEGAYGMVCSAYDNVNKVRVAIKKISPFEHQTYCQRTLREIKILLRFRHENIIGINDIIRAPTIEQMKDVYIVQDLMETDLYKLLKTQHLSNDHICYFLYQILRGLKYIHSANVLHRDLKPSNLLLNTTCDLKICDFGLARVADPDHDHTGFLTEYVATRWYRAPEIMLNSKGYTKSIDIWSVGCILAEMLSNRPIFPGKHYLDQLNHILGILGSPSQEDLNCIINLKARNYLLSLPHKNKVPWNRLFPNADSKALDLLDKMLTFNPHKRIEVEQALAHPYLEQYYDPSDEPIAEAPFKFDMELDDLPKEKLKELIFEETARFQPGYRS

[2] = biological target: Ribosomal protein S6 kinase alpha-1 (Homo sapiens) (UniProt Q15418); assay: Inhibition of Rsk1 phosphorylation in PMA-stimulated human U937 cells at 10 to 50 uM after 3 hrs by Western blotting; format: cell-based; conditions: U-937
Sequence of Ribosomal protein S6 kinase alpha-1 (Homo sapiens) (Q15418 whole entry, the tested form may be a part): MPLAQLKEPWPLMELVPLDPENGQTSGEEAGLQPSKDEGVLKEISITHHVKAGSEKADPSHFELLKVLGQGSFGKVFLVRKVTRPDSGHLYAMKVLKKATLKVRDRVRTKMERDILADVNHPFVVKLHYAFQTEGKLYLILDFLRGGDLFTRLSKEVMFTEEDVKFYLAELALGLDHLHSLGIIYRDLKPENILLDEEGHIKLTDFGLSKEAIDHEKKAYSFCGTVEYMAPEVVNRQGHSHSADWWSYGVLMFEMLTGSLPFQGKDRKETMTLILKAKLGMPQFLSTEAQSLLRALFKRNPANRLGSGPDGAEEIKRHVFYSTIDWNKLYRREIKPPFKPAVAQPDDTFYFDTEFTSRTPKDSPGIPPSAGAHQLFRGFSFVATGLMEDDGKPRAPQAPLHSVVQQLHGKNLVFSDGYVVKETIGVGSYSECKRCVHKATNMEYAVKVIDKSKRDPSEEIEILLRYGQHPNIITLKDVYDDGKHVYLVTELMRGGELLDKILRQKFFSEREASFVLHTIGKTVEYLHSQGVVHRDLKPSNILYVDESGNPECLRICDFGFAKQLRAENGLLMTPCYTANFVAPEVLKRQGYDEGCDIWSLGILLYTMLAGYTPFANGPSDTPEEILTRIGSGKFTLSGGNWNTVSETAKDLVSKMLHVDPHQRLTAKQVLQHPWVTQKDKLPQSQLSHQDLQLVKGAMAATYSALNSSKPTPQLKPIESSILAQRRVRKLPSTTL

[3] = biological target: MAP kinase p38 (Homo sapiens) (UniProt O15264+Q15759+Q16539+P53778); assay: Inhibition of p38 phosphorylation in PMA-stimulated human U937 cells at 50 uM after 3 hrs by Western blotting; format: cell-based; conditions: U-937
[4] = biological target: Dual specificity mitogen-activated protein kinase kinase; MEK1/2 (Homo sapiens) (UniProt P36507+Q02750); assay: Inhibition of MEK1/2 phosphorylation in PMA-stimulated human U937 cells at 50 uM after 3 hrs by Western blotting; format: cell-based; conditions: U-937
Sequence of Dual specificity mitogen-activated protein kinase kinase; MEK1/2 (Homo sapiens) (P36507 whole entry, looked up): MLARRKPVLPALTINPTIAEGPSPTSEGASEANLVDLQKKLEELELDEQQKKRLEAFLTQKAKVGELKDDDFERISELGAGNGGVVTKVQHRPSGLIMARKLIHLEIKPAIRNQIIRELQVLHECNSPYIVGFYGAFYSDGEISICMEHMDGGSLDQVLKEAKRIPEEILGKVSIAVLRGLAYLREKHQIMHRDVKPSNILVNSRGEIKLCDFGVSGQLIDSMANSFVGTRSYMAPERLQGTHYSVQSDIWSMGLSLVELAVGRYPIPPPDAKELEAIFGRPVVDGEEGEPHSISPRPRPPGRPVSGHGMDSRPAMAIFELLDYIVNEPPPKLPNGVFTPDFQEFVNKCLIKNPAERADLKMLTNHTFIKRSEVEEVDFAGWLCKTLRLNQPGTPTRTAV
Sequence of Dual specificity mitogen-activated protein kinase kinase; MEK1/2 (Homo sapiens) (Q02750 whole entry, looked up): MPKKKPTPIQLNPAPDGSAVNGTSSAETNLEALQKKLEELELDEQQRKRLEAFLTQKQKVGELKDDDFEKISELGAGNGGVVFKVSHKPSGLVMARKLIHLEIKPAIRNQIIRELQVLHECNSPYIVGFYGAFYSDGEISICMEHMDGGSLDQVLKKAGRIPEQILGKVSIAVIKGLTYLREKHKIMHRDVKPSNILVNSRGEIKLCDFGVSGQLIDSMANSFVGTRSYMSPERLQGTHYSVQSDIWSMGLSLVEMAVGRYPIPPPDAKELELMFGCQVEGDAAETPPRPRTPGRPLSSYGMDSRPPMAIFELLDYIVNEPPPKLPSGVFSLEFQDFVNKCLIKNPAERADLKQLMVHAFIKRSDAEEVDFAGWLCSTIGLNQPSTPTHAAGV

[5] = test system: U-937; assay: Induction of apoptosis in human U937 assessed as loss of mitochondrial membrane potential after 18 hrs by DiOC6 uptake assay; format: functional, cell-based
[6] = biological target: T1, Mitogen-activated protein kinase; ERK1/ERK2 (Homo sapiens); assay: Inhibition of ERK1/2 phosphorylation in PMA-stimulated human U937 cells at 50 uM after 3 hrs by Western blotting; format: cell-based; conditions: U-937
[7] = biological target: Ribosomal protein S6 kinase alpha-1 (Homo sapiens) (UniProt Q15418); assay: Inhibition of Rsk1 phosphorylation in PMA-stimulated human U937 cells at 50 uM after 3 hrs by Western blotting; format: cell-based; conditions: U-937
[8] = biological target: T2, ETS domain-containing protein Elk-1 (Homo sapiens) (UniProt P19419); assay: Inhibition of Elk1 phosphorylation in PMA-stimulated human U937 cells at 50 uM after 3 hrs by Western blotting; format: cell-based; conditions: U-937
T2 sequence (whole entry): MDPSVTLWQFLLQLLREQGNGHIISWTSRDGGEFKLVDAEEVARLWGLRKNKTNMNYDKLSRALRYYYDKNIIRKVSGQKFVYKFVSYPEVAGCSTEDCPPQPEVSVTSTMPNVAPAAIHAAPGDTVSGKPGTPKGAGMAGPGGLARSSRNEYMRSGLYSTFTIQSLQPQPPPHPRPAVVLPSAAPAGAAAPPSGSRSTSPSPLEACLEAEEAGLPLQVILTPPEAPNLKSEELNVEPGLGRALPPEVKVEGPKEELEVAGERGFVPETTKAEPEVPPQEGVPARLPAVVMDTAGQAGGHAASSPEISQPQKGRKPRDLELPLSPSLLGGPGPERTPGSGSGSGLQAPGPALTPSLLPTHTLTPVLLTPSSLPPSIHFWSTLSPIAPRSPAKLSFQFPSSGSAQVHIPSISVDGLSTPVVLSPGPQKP

[9] = Inhibition of MEK phosphorylation
[10] = biological target: T1, Mitogen-activated protein kinase; ERK1/ERK2 (Homo sapiens); assay: Inhibition of ERK1/2 phosphorylation in EGF-stimulated human SKOV3 cells; format: cell-based; conditions: SK-OV-3
[11] = biological target: Mitogen-activated protein kinase 1 (Homo sapiens) (UniProt P28482); assay: Inhibition of recombinant ERK2-mediated myelin basic protein phosphorylation at 50 uM after 30 mins by SDS-PAGE
Sequence of Mitogen-activated protein kinase 1 (Homo sapiens) (P28482 whole entry): as the sequence (P28482 whole entry, looked up) above

[12] = test system: U-937; assay: Cytotoxicity against human U937 cells assessed as cell viability up to 30 uM after 24 hrs by MTT assay; format: functional, cell-based
[13] = Inhibition of JNK phosphorylation
[14] = test system: U-937; assay: Antiproliferative activity human U937 cells by [3H]thymidine incorporation assay; format: functional, cell-based

SMILES: NCCN1C(=O)S/C(=C\c2cccc3ccccc23)C1=O
- inhibition [3]: Active
- inhibition [4]: Active
- Activity [5]: inactive
- inhibition [6]: Active
- inhibition [7]: Active
- inhibition [8]: Active

SMILES: CCOc1cccc(/C=C2\SC(=O)N(CCN)C2=O)c1
- inhibition [1]: inactive
- inhibition [2]: inactive

SMILES: NCCN1C(=O)S/C(=C\c2ccc3c(c2)OCCO3)C1=O
- inhibition [3]: Active
- inhibition [4]: Active
- Activity [5]: inactive
- inhibition [6]: Active
- inhibition [7]: Active
- inhibition [8]: Active

SMILES: NCCN1C(=O)S/C(=C\c2cccc(F)c2)C1=O
- inhibition [2]: inactive

SMILES: CN(C)CCN1C(=O)S/C(=C\C/C=C/c2ccccc2)C1=O
- inhibition [3]: inactive
- inhibition [6]: Active
- inhibition [7]: Active
- inhibition [8]: Active

SMILES: NCCN1C(=O)S/C(=C\c2ccccc2)C1=O
- inhibition [1]: inactive
- inhibition [2]: inactive

SMILES: NCCN1C(=O)S/C(=C\[C@H](O)[C@@H](O)c2ccccc2)C1=O
- inhibition [6]: inactive

SMILES: CCOc1ccc(/C=C2\SC(=O)N(CCN(C)C)C2=O)cc1
- inhibition [2]: inactive

SMILES: NCCN1C(=O)S/C(=C\c2cccc([N+](=O)[O-])c2)C1=O
- inhibition [2]: inactive

SMILES: CCOc1ccc(/C=C2\SC(=O)N(CCNC(C)=O)C2=O)cc1
- inhibition [2]: inactive

SMILES: CCOc1ccccc1/C=C1\SC(=O)N(CCN)C1=O
- inhibition [1]: inactive
- inhibition [3]: inactive
- inhibition [9]: inactive
- inhibition [10]: inactive
- inhibition [11]: inactive
- inhibition [2]: Active
- Activity [5]: Dose-dependent effect
- Activity [14]: Dose-dependent effect
- inhibition [8]: Active
- Activity [12]: inactive
- inhibition [13]: inactive

SMILES: NCCN1C(=O)S/C(=C\c2ccc(-c3ccc(Cl)cc3)cc2)C1=O
- inhibition [1]: inactive
- inhibition [2]: Active

More lines, main results first:

- inhibition [1]: inactive
- inhibition [2]: inactive
SMILES: COc1ccc(/C=C2\SC(=O)N(CCN)C2=O)cc1

- inhibition [2]: inactive
SMILES: NCCN1C(=O)S/C(=C\c2ccc(F)cc2)C1=O

- inhibition [3]: inactive
- inhibition [9]: inactive
- inhibition [10]: inactive
- inhibition [11]: inactive
- inhibition [6]: inactive
- inhibition [7]: Active
- inhibition [13]: inactive
SMILES: CCOc1ccc(/C=C2\SC(=O)N(CCN)C2=O)cc1
- Activity [12]: inactive

- inhibition [2]: inactive
SMILES: NCCN1C(=O)S/C(=C\c2ccc([N+](=O)[O-])cc2)C1=O

- inhibition [1]: inactive
- inhibition [2]: inactive
SMILES: Cc1ccc(/C=C2\SC(=O)N(CCN)C2=O)cc1
